Tests used:
[1] = target: T1, K-Ras G12S (Homo sapiens, UniProt P01116, G12S); assay: HTRF assay, K-Ras G12S / SOS1 interaction; format: biochemical; settings: IC50 against K-Ras G12D divided by IC50 against K-Ras G12S
T1 construct: made in house; host or cells: E. coli, e.g. BL21 (DE3)
From the text: This assay can be also used to assess a selective inhibition or reduction of signaling output of a mutant Ras protein relative to a wildtype, or relative to a different mutant Ras protein. For example, the equilibrium interaction of wildtype Kras or K-Ras mutant (e.g., wildtype or a mutant thereof including those mentioned in Example 6) with SOS1 (e.g., hSOS1) can be assessed as a proxy or an indication for a subject compound's ability to bind and inhibit Ras protein. HTRF assay detects from (i) a fluorescence resonance energy transfer (FRET) donor (e.g., antiGST-Europium) that is bound to GST-tagged K-Ras mutant to (ii) a FRET acceptor (e.g., anti-6His -XL665) bound to a His -tagged hSOS1.
The assay buffer can contain ˜5 mM HEPES pH 7.4, ˜150 mM NaCl, ˜1 mM DTT, 0.05% BSA and 0.0025% (v/v) Igepal. A Ras working solution is prepared in an assay buffer containing typically a suitable amount of the protein construct (e.g., GST-tagged K-Ras mutant) and the FRET donor (e.g., antiGST-Eu(K) from Cisbio, France). A SOS1 working solution is prepared in an assay buffer containing suitable amount of the protein construct (e.g., His -hSOS1) and the FRET acceptor (e.g., anti-6His -XL665 from Cisbio, France). A suitable amount of the protein construct will depend on the range of activity or range of IC50 values being detected or under investigation. For detecting IC50 within a range of 500 nM, the protein constructs of the same range of molarity can be utilized.
A fixed volume of DMSO with or without test compound is transferred into a 384-well plate. Ras working solution is added to all wells of the test plate. SOS1 working solution is added to all wells except for those that are subsequently filled the inhibitor control solution. Upon incubation for about 10 minutes or longer, the fluorescence is measured with a M1000Pro plate reader (Tecan) using HTRF detection (excitation 337 nm, emission 1: 620 nm, emission 2: 665 nm). Compounds are tested in duplicates at different concentrations (for example, 10 μM, 2.5 μM, 0.63 μM, 0.16 μM, 0.04 μM, 0.01 μM test compound). The ratiometric data (i.e., emission 2 divided by emission 1) is used to calculate IC50 values against Ras using GraphPad Prism (GraphPad software). Following this general procedure, samples were tested with or without a subject compound disclosed herein including compounds exemplified in Table 3 to assess their abilities to inhibit K-Ras G12S relative to another mutant (e.g., K-Ras G12D). Signaling output measured in terms of IC50 values can be obtained, a ratio of IC50 against one mutant relative to another mutant can be calculated. For instance, a selective reduction of K-Ras G12S signaling output can be evidenced by a ratio greater than one. In particular, a selective reduction of K-Ras G12S signaling relative to K-Ras G12D signaling is evidenced as the ratio of IC50 (against K-Ras G12D) to IC50 (against K-Ras G12S) is greater than 1.

[2] = system: A549 cells; assay: Cell proliferation assay (CellTiter-Glo), K-Ras G12S cells; format: cell-based; settings: A549 cells; Comparative Compound A lacking the warhead vs Compound B
Procedure: A549 (ATCC CRL-185) and LS123 (ATCC CRL-255) cell lines comprise a G12S mutation and can be used to assess Ras cellular signaling in vitro, e.g., in response to the compounds herein. A549 culture medium is prepared with RPMI-1640 and 10% heat-inactivated FBS. LS123 culture medium is prepared with RPMI-1640 and 10% heat-inactivated FBS. A CellTiter-Glo (CTG) luminescent based assay (Promega) is used to assess growth of the cells, as a measurement of the ability of the compounds herein to inhibit Ras signaling in the cells. The cells (e.g., 800 per well) are seeded in their respective culture medium in standard tissue culture-treated 384-well format plates (Falcon #08-772-116) or ultra-low attachment surface 384-well format plates (S-Bio #MS-9384WZ). The day after plating, cells are treated with a dilution series (e.g., a 10 point 3-fold dilution series) of the compounds herein (e.g., approximately 40 μl final volume per well). Cell viability can be monitored (e.g., approximately 6 days later) according to the manufacturer's recommended instructions, where the CellTiter-Glo reagent is added (e.g., approximately 10 μl), vigorously mixed, covered, and placed on a plate shaker (e.g., approximately for 20 min) to ensure sufficient cell lysis prior to assessment of luminescent signal. The IC50 values are determined using the four parameter fit. The resulting IC50 value is a measurement of the ability of the compounds herein to reduce cell growth of Ras-driven cells (e.g., tumor cell lines) in vitro and/or in vivo.

[3] = target: T2, KRAS G12D 1-169 (His-tagged, GDP-loaded) (Homo sapiens, UniProt P01116, G12D); assay: Covalent modification of KRAS protein by intact-protein LC-MS; format: binding; settings: comparable or same conditions as K-Ras G12S
T2 construct: His -tagged GDP-loaded G12D 1-169; made in house; host or cells: E. coli, e.g. BL21 (DE3)
How it was run: (§1)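 Percent modification is derived from deconvoluted intact-protein LC-ESI-MS peak intensities of adducted versus unmodified KRAS. GDP-loaded His-tagged KRAS 1-169 (~2 μM, HEPES buffer at physiological conditions) was exposed to compound for 24 hrs at room temperature, then quenched with formic acid before C4 reversed-phase separation.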

[4] = Metabolic (microsomal) stability assay; settings: pooled liver microsomes, pH 7.4
Procedure: The metabolic stability of a test compound is assayed at 37° C. using pooled liver microsomes (mouse or human liver microsomes). An aliquot of 10 μL of 50 μM test compound is mixed with 490 μL of 0.611 mg/mL liver microsomes, then 50 μL of the mixtures are dispensed to the 96 well tubes and warmed at 37° C. for 10 minutes. The reactions are initiated by adding 50 μL of the pre-warmed NADPH regeneration system solution (add 1.2 μL solution, 240 μl solution B, mix with 10.56 ml KPBS) and then incubated at 37° C. The final incubation solution contains 100 mM potassium phosphate (pH 7.4), 1.3 mM NADP+, 3.3 mM glucose 6-phosphate, 0.4 Unit/mL of glucose 6-phosphate dehydrogenase, 3.3 mM magnesium chloride, 0.3 mg/mL liver microsomes and 0.5 μM test article. After 0, 15, 30 and 60 minutes in a shaking incubator, the reactions are terminated by adding 100 μL of acetonitrile containing 200 nM buspirone as an internal standard. All incubations are conducted in duplicate. […] Samples are then centrifuged at 3500 rpm for 10 minutes (4° C.) using Sorvall Legend XRT Centrifuge (Thermo Scientific, GE). Supernatants (40 μL) are transferred into clean 96-deep well plates. Each well is added with 160 μL of ultrapure water (Milli-Q, Millipore Corporation) with 0.1% (v/v) formic acid (Fisher Chemical), mixed thoroughly and subjected to LC/MS/MS analysis in MRM positive ionization mode.
All the samples are measured using a mass spectrometer (QTrap 5500 quadrupole/ion trap) coupled with a Shimadzu HPLC system. The HPLC system consisted of a Shimadzu series degasser, binary quaternary gradient pumps, column heater coupled to an autosampler, and a Phenomenex Gemini-NX, C18, 3.0 μm or Phenomenex Lunar, C8, 5.0 μM HPLC column (Phenomenex, Torrance, CA), and eluted with a mobile phase gradient consisting of Solution A (0.1% formic acid water) and Solution B (0.1% formic acid acetonitrile). The column temperature is maintained at 40° C. All the analytes are detected with positive-mode electrospray ionization (ES+).
The half-life for the metabolic degradation of the test compound is calculated by plotting the time-course disappearance of the test compound during the incubation with liver microsomes. Each plot is fitted to a first-order equation for the elimination of the test compound (% remaining compound) versus time using non-linear regression (Equation 1).
where Ct is the mean relative substrate concentration at time t and C0 is the initial concentration (0.5 μM) at time 0. Note that the area ratio of the substrate peak to an internal standard peak is proportional to the analyte concentration and is used for regression analysis to derive a value of k.

[5] = target: T3, KRAS G12S 1-169 (His-tagged, GDP-loaded) (Homo sapiens, UniProt P01116, G12S); assay: Covalent modification of KRAS protein by intact-protein LC-MS; format: binding; settings: KRAS G12S, 24 hr
T3 construct: His -tagged GDP-loaded G12S 1-169; made in house; host or cells: E. coli, e.g. BL21 (DE3)
How it was run: as §1

Row | Compound | Ratio of IC50 KRAS G12D vs. IC50 KRAS G12S [1] | Compound IC50 Ratio IC50 (Cpd A):IC50 (Cpd B) [2] | covalent labeling of K-Ras G12D [3] | half-life at 0.5 μM [4] | % G12S Modification at 24 hr. [5]
1 | (4-((7-(2-amino-7-fluorobenzo- [d]thiazol-4-yl)-6-chloro-8- fluoro-2-(((2R,7aS)-2-fluoro- tetrahydro-1H-pyrrolizin- 7a(5H)-yl)methoxy)quinazolin- 4-yl)amino)piperidin-1-yl)(2- chloro-1H-imidazol-1-yl)meth- anone [Compound A159] | A (A: indicates that the ratio of IC50 against KrasG12D vs. IC50 against KrasG12S is 1-fold or greater) | – | – | – | –
2 | N#CCc1ncn(C(=O)N2CC3(C2)CN(c2nc(OC[C@@]45CCCN4C[C@H](F)C5)nc4c(F)c(-c5ccc(F)c6sc(N)c(C#N)c56)c(Cl)cc24)CCO3)n1 [Compound A110, 2-amino-4-(6-chloro-4-(2-(3-(cyanomethyl)-1H-1,2,4-triazole-1-carbonyl)-5-oxa-2,8-diazaspiro[3.5]nonan-8-yl)-8-fluoro-2-(((2R,7aS)-2-fluoro-tetrahydro-1H-pyrrolizin-7a(5H)-yl)methoxy)quinazolin-7-yl)-7-fluorobenzo[b]thio-phene-3-carbonitrile] | – | >4 (A549 cells) | essentially no detectable labeling | > 10 min | –
3 | N#Cc1cn(C(=O)N2CCC(Nc3nc(OC[C@@]45CCCN4C[C@H](F)C5)nc4c(F)c(-c5ccc(F)c6sc(N)nc56)c(Cl)cc34)CC2)cn1 [Compound A160, 1-(4-((7-(2-amino-7-fluorobenzo-[d]thiazol-4-yl)-6-chloro-8-fluoro-2-(((2R,7aS)-2-fluoro-tetrahydro-1H-pyrrolizin-7a(5H)-yl)methoxy)quinazolin-4-yl)amino)piperidine-1-car-bonyl)-1H-imidazole-4-carbo-nitrile] | A (A: indicates that the ratio of IC50 against KrasG12D vs. IC50 against KrasG12S is 1-fold or greater) | – | – | – | –
4 | Cc1nc(C(C)C)nn1C(=O)N1CC2(C1)CN(c1nc(OC[C@@]34CCCN3C[C@H](F)C4)nc3c(F)c(-c4ccc(F)c5sc(N)c(C#N)c45)c(Cl)cc13)CCO2 [Compound A208, 2-amino-4-(6-chloro-8-fluoro-2-(((2R,7aS)-2-fluorotetrahydro-1H-pyrrolizin-7a(5H)-yl)meth-oxy)-4-(2-(3-isopropyl-5-meth-yl-1H-1,2,4-triazole-1-carbon-yl)-5-oxa-2,8-diazaspiro[3.5]-nonan-8-yl)quinazolin-7-yl)-7-fluorobenzo[b]thiophene-3-carbonitrile] | A (A: indicates that the ratio of IC50 against KrasG12D vs. IC50 against KrasG12S is 1-fold or greater) | – | – | – | –
5 | Nc1nc2c(-c3c(Cl)cc4c(N[C@H]5C[C@H]6CC[C@@H](C5)N6C(=O)n5cncn5)nc(OC[C@@]56CCCN5C[C@H](F)C6)nc4c3F)ccc(F)c2s1 [Compound A207, ((1R,3r,5S)-3-((7-(2-amino-7-fluorobenzo[d]thiazol-4-yl)-6-chloro-8-fluoro-2-(((2R,7aS)-2-fluorotetrahydro-1H-pyrrolizin-7a(5H)-yl)methoxy)quinazolin-4-yl)amino)-8-azabicyclo[3.2.1]-octan-8-yl)(1H-1,2,4-triazol-1-yl)methanone] | A (A: indicates that the ratio of IC50 against KrasG12D vs. IC50 against KrasG12S is 1-fold or greater) | – | – | – | +++ (+++ indicates greater than 20% labelling)
6 | 2-amino-4-(6-chloro-4-(8-(5- chloro-1H-1,2,4-triazole-1- carbonyl)-3,8-diazabicyclo- [3.2.1]octan-3-yl)-8-fluoro-2- (((2R,7aS)-2-fluorotetrahydro- 1H-pyrrolizin-7a(5H)-yl)meth- oxy)quinazolin-7-yl)-7-fluoro- benzo[b]thiophene-3-carbonitrile [Compound A194] | A (A: indicates that the ratio of IC50 against KrasG12D vs. IC50 against KrasG12S is 1-fold or greater) | – | essentially no detectable labeling | – | ++ (++ indicates between about 1%-20% labelling)
7 | CN1CCC[C@H]1COc1nc(N2CCOC3(CN(C(=O)n4cncn4)C3)C2)c2cc(Cl)c(-c3ccc(F)c4sc(N)c(C#N)c34)c(F)c2n1 [Compound A137, 4-(4-(2-(1H-1,2,4-triazole-1-carbonyl)-5-oxa-2,8-diaza-spiro[3.5]nonan-8-yl)-6-chloro-8-fluoro-2-(((S)-1-methylpyr-rolidin-2-yl)methoxy)quinaz-olin-7-yl)-2-amino-7-fluoro-benzo[b]thiophene-3-carbonitrile] | – | >4 (A549 cells) | essentially no detectable labeling | – | –

— patent publication US20240368191A1, “HETEROCYCLIC COMPOUNDS AND USES THEREOF” (Kumquat Biosciences Inc., priority 2021, published 2024)
